This note sets out measurements from patent publication US9381173B2, “Isolated stereoisomeric forms of (S)2-N(3-O-(propan 2-Ol)-1-propyl-4-hydroxybenzene)-3-phenylpropylamide” (Novaremed Ltd., priority 2011, dated 2016).

Molecules are shown by their SMILES.

The subject of data set [1] is tail flick model for nociceptive pain in mice. The data set can be described thus: Tail flick test for nociceptive pain. Type of data set: in vivo. Conditions: for Mean latency time Post-treatment: 30 minutes after administration; for Mean latency time Pre-treatment: baseline a day before. As for the experimental part: In the present study the analgesic effect of the substantially pure enantiomers E1 and E2 was evaluated using the tail flick model for nociceptive pain in mice.
The experiment was performed using male ICR strain 7 weeks old mice (25-27 g) (supplied by Harlan Israel, Ltd.)
Response to pain was assessed using the tail flick method which utilizes an Ugo Basile tail flick instrument. The animal is placed and held gently on the Ugo Basile tail flick (TF) instrument surface with the tail straight back and above a photoelectric cell that served as heat source. The heat source and timer are turned on by a foot pedal press, and automatically switch off when the animal flicks its tail off the emitter. Latency is measured and analyzed as an analgesic effect.
Description of the Study: The baseline tail flick was measured a day before the experiment started. On the day of the experiment, animal body weights were first measured followed by the IP administration of the test items (vehicle, morphine, NRD 13 S E1 and E2). 30 minutes after administration of the test items, the animals were subjected to the tail-flick testing. The tail-flick experiments were followed by blood sampling of all groups. The experiment was terminated after spinal cords and brains of all groups have been collected.
Statistics and Data Evaluation: All parameters are represented as means and standard error of the mean (SEM). Data was analyzed using a two tailed, unpaired T-test to compare each treatment group to the Vehicle treated animals. A two-tailed, paired T-test was used to compare the pre-treatment and post-treatment of each treatment group. Probability values p<0.01 and p<0.05 are considered significant.

The target in data set [2] is BLK (Homo sapiens, UniProt P51451). The data set can be described thus: BLK mobility-shift kinase assay (Caliper LabChip 3000). Conditions: 5 concentrations, duplicate wells; listed as (S,R) enantiomer. Type of data set: biochemical. On the procedure: (§1) Each compound and concentration was tested in duplicate wells.
(§2) Data points are the averages of duplicate wells. Error bars represent the mean±replicate % activity.

The target of data set [3] is Lyn A (Homo sapiens, UniProt P07948). The data set can be described thus: Lyn A mobility-shift kinase assay (Caliper LabChip 3000). The class given is biochemical. Conditions: 5 concentrations, duplicate wells; listed as (S,R) enantiomer. On the procedure:
as §1, §2

For data set [4], the target named is Lyn B (Homo sapiens, UniProt P07948). Nature of the data set: Lyn B mobility-shift kinase assay (Caliper LabChip 3000). Conditions: 5 concentrations, duplicate wells; listed as (S,R) enantiomer. Type of data set: biochemical. On the procedure:
as §1, §2

In data set [5] the test system is spinal nerve ligation (SNL or Chung) model for neuropathic pain in rats. The data set can be described thus: Spinal nerve ligation (Chung) model, Von Frey test for mechanical allodynia. The class given is in vivo. As for the experimental part:
The antinociceptive and analgesic activity of E1 in a spinal nerve ligation (SNL or Chung) model for neuropathic pain in rats was evaluated.
On study day 0, all animals underwent Chung surgery, which consisted of an operation where the left L5-L6 spinal nerves were isolated and cut. Fourteen days post surgery the animals were selected using pain threshold results from the Von Frey test. Only animals that indicated signs of mechanical allodynia were included in the study. After the selection process, the animals were grouped and Test Items were administered via IP. The pain response was measured using Von Frey methodology at 2, 5 and 24 hours after Test Item administration on study day 14, and at 2, 5, 24 and 48 hours on study day 21 after 7 days of Test Item administration.
Species: 50 SD young adult male rats, 225-260 g at study initiation (Harlan Laboratories, Israel. Ltd.)
Neuropathic Pain Induction: While under anesthesia using ketamine/xylazine sodium and after the area was shaved, the rat was placed in a prone position and the left paraspinal muscles were separated from the spinous process at the L4-S2 levels. The L6 vertebral transverse process was carefully removed with a small rongeur to visually identify the L5-L6 spinal nerves. The left L5-L6 spinal nerves were cut. The muscle was then closed with 4-0 silk sutures and the skin was closed by a clamp. Following surgery, the rats were returned to the cage and remained under a heating lamp until they awoke.
Inclusion/Exclusion Criteria for Pre-Selection: On post-operative day 14, animals were tested for mechanical allodynia using Von Frey methodology prior to being placed in their experimental groups. Only animals with a pain threshold of ≦26 g for the operated leg were included in the study. In order to form homogenous treatment groups and to adhere to randomization, all the operated rats were grouped according to inclusion/exclusion criteria.
The Von Frey test was performed prior to Test Items' administrations (pre-TI injection) and at 2 and 5 hours after TI administration (post-TI injection) on study days 14 and 21.
Von Frey test was performed prior to TI's administration on study day 15 (24 hours post-TI's administration on study day 14) and on study days 22 and 23 (24 and 48 hours respectively post-TI's administration on study day 21).
Pain Response Evaluation: Pain response was evaluated using Von Frey test for mechanical allodynia.
The Von Frey test for mechanical allodynia is based on applying short pulses of pressure that are not painful to a naive animal. In fact, in order to achieve paw withdrawal from a naive animal, the pressure applied is sometimes higher than 60 g. This often requires the researcher to apply enough pressure with the Von Frey filament to actually lift the paw of the naive animal. However, in disease conditions, the animals are sensitive to much lower pressure and experience pain as a result of a normally non-painful stimulus.
Mechanical Allodynia Evaluation (Von Frey Testing): Allodynic response to tactile stimulation was assessed using the Von Frey apparatus (Touch®).
The rats were placed in an enclosure and positioned on a metal mesh surface, but allowed to move freely. The rats' cabins were covered with red cellophane to diminish environmental disturbances. The test began after cessation of exploratory behavior. The set of Von Frey monofilaments provide an approximate logarithmic scale of actual force and a linear scale of perceived intensity as provided by the manufacturer of the Von Frey apparatus (Ugo Basil). The operating principle: When the tip of a fiber of given length and diameter is pressed against the skin at right angles, the force of application increases as long as the researcher continues to advance the probe until the fiber bends. After the fiber bends, the probe continues to advance, causing the fiber to bend more, but without additional force being applied to the paw. […]

Data set [6] can be described thus: Body weight in the Chung model study. The class given is in vivo, rats. As for the experimental part:
Body Weights: Body weight was measured at regular intervals on study days −1 for baseline values and seven days after the surgery (study day 7).

Setting [7] is: 150 mg/kg IP (group 2), before first dose.
Setting [8] is: 150 mg/kg IP on days 14, 15, 21 (group 2).
The mark [9] stands for this setting: 150 mg/kg IP, study day 14, 2 hours.
[10] abbreviates: 150 mg/kg IP, study day 21, 2 hours.

Chain of Lyn A (P07948 whole entry, species assumed): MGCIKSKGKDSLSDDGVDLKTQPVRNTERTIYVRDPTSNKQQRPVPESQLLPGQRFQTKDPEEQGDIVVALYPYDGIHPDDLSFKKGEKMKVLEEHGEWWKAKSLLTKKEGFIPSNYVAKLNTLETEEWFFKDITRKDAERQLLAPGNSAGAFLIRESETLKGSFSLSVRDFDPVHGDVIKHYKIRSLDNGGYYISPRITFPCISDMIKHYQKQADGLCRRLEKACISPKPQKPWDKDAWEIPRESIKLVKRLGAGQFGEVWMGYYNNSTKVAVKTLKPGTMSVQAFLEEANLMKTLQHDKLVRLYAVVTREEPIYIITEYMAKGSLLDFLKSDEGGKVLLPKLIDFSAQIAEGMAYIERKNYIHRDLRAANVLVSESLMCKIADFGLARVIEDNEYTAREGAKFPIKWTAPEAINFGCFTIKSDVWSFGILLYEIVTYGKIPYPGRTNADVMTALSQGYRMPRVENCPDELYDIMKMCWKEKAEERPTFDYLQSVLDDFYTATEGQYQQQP
Chain of Lyn B (P07948 1-491 isoform P07948-2, species assumed): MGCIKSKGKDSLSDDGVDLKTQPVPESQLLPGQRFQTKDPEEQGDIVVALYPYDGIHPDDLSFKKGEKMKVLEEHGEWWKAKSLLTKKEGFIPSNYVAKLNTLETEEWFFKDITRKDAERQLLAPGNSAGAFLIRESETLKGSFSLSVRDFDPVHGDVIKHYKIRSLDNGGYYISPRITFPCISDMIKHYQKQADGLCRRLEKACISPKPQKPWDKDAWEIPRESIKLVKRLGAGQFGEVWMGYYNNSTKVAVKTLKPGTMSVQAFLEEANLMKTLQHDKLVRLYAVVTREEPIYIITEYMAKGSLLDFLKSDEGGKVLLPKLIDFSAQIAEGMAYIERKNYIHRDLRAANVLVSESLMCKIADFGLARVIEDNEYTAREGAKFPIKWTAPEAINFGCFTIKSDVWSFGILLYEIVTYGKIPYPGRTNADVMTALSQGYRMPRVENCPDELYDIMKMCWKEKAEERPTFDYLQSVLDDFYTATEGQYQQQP
Chain of BLK (P51451 whole entry, species assumed): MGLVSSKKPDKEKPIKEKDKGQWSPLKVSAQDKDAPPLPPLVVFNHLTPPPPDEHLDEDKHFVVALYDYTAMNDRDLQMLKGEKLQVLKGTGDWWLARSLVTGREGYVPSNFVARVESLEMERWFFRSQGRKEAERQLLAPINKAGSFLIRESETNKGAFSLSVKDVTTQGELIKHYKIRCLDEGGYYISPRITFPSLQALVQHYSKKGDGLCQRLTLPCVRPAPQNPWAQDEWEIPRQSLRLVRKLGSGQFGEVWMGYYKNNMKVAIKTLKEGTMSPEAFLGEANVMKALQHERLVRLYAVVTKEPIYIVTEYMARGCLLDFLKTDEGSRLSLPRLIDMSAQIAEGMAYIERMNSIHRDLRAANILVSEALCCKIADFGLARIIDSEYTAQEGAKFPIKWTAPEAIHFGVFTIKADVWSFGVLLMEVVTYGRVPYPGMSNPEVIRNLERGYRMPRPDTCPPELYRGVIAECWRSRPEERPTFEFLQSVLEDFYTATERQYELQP

Regarding `CC(O)COCC(Cc1ccc(O)cc1)NC(=O)CCc1ccccc1` [E2, (S)2-N(3-O—((R)propan 2-ol)-1-propyl-4-hydroxybenzene)-3-phenylpropylamide], in data set [1] (10 mg/kg IP), the “difference in tail flick latency times” value is given as “did not cause any statistically significant difference”; the “increase of latency time between pretreatment and post treatment” value is on record as “not statistically significant”; the “reducing pain when compared to the Vehicle” value is listed as “not significantly active in reducing pain”. In data set [1] (10 mg/kg IP (groups 4, 6)), the “Δ of latency time post- and pre-treatment” value is 0.63 ± 0.87 s; the “Mean latency time Post-treatment” value came to 8.93 ± 0.93 s; the “Mean latency time Pre-treatment” value turned out to be 8.30 ± 0.46 s. Moreover, the “conclusion: activity in tail flick study” value in data set [1] (dose of 10 mg/kg) is reported as “not active”. Also, in data set [1] (summary statement, listed as (S,R) enantiomer), the “pain analgesic in animal models of pain” value is recorded as “ineffective or less effective”. Besides, the “modulation of BLK tyrosine kinase activity” value in data set [2] is “inhibited”. Also, the “modulation of LynA tyrosine kinase activity” value in data set [3] is recorded as “inhibited”. Moreover, in data set [4], the “modulation of LynB tyrosine kinase activity” value was “inhibited”.

Turning to `NCC1(CC(=O)O)CCCCC1` [Gabapentin, reference compound], in data set [5] (150 mg/kg IP (group 2)), the “delta force right minus left leg, Day 14 Post-treatment 5 hours” value stood at 48.20 ± 1.85 g and the “mean Von Frey force, left operated leg, Day 14 Post-treatment 5 hours” value came to 11.80 ± 1.85 g. In data set [5] (setting [7]), the “delta force right minus left leg, Day 14 Pretreatment” value stood at 50.00 ± 0.88 g and the “mean Von Frey force, left operated leg, Day 14 Pretreatment” value was found to be 10.00 ± 0.88 g. Besides, the “difference (delta) force between right healthy leg and left operated leg, Baseline” value in data set [5] (150 mg/kg IP (group 2), before operation) turned out to be 0.00 ± 0.00 g. Moreover, the “mean Von Frey force required for withdrawal of the left operated leg, Baseline” value in data set [5] (150 mg/kg IP (group 2), day -1, before operation) came out at 53.20 ± 4.53 g. In data set [5] (setting [8]), the “delta force right minus left leg, Day 21 Post-treatment 5 hours” value is recorded as 47.40 ± 1.85 g; the “delta force right minus left leg, Day 21 Post-treatment 24 hours” value is recorded as 46.60 ± 2.29 g; the “delta force right minus left leg, Day 21 Post-treatment 48 hours” value is recorded as 50.50 ± 0.69 g; the “delta force right minus left leg, Day 21 Pretreatment” value was 49.80 ± 0.85 g. For the same compound, in data set [5] (setting [8]), the “mean Von Frey force, left operated leg, Day 21 Post-treatment 5 hours” value was found to be 12.60 ± 1.85 g; the “mean Von Frey force, left operated leg, Day 21 Post-treatment 24 hours” value came out at 13.40 ± 2.29 g; the “mean Von Frey force, left operated leg, Day 21 Post-treatment 48 hours” value amounted to 9.50 ± 0.69 g; the “mean Von Frey force, left operated leg, Day 21 Pretreatment” value was found to be 10.20 ± 0.85 g. In addition, the “conclusion: analgesic activity of the positive control” value in data set [5] (150 mg/kg IP, 2 hours after administration on study days 14 and 21) is “active”. Further, the “conclusion: analgesic activity of the positive control” value in data set [5] (150 mg/kg IP, 5 hours, 24 hours and 48 hours post dosing) is “no longer detected”. The “inhibition of allodynia compared to the pretreatment value of delta withdrawal force” value in data set [5] (150 mg/kg IP, day 14, 2 hours) was “inhibited allodynia”. Moreover, in data set [5] (150 mg/kg IP, day 14, 5 hours), the “inhibition of allodynia compared to the pretreatment value of delta withdrawal force” value is given as “not effective”. In addition, the “pain relief activity, delta withdrawal force between the two legs vs. Vehicle” value in data set [5] (150 mg/kg IP, day 14 and day 21, 2 hours) is “significant pain relief activity”. In data set [5] (150 mg/kg IP, day 21, 2 hours), the “inhibition of allodynia compared to the pretreatment value of delta withdrawal force” value was “effectively inhibited allodynia”. In addition, in data set [5] (setting [9]), the “inhibition of allodynia (Von Frey) compared to the Vehicle control” value (shortened to “inhibition … compared to the Vehicle control”) was “inhibited allodynia” and the “inhibition of allodynia (Von Frey) compared to the pretreatment value” is “inhibited allodynia”. For the same compound, the “inhibition … compared to the Vehicle control” value in data set [5] (150 mg/kg IP, study day 14, 5 hours) is recorded as “not effective”. In addition, in data set [5] (150 mg/kg IP, study day 14, 24 hours), the “inhibition of allodynia (Von Frey) compared to the pretreatment value” is “not effective”. In addition, in data set [5] (setting [10]), the “inhibition … compared to the Vehicle control” value is listed as “effectively inhibited allodynia” and the “inhibition of allodynia (Von Frey) compared to the pretreatment value” is recorded as “inhibited allodynia”. Besides, the “inhibition … compared to the Vehicle control” value in data set [5] (150 mg/kg IP, study day 21, 5 hours) is recorded as “not effective”. In addition, the “duration of analgesic effect post administration” value in data set [5] (summary statement) was at most 5 h. Besides, the “Mean group body weight Day 14” value in data set [6] (150 mg/kg IP (group 2), before first administration) is 283.30 ± 2.53 g. Moreover, the “Mean group body weight Day 7” value in data set [6] (150 mg/kg IP (group 2), before treatment) stood at 255.20 ± 2.83 g. Moreover, the “Mean group body weight Baseline” value in data set [6] (150 mg/kg IP (group 2), study day -1, before surgery and treatment) came to 242.10 ± 2.44 g. The “Mean group body weight Day 21” value in data set [6] (setting [8]) is given as 307.90 ± 3.42 g.

Turning to `CN1CC[C@]23c4c5ccc(O)c4O[C@H]2[C@@H](O)C=C[C@H]3[C@H]1C5` [Morphine, reference compound], the “Mean latency time Post-treatment” value in data set [1] (5 mg/kg IP (group 2)) stood at 15.38 ± 1.47 s. In addition, the “Mean latency time Pre-treatment” value is 7.92 ± 0.17 s in data set [1] (5 mg/kg IP (group 2)) and 7.92 ± 0.17 s in data set [1] (5 mg/kg IP (group 2), listed as morphine).
